From US12077538B2, “Diacylglycerol kinase (DGK) alpha inhibitors and uses thereof” (priority 2022, dated 2024)

Tests used:
[1] = Pharmacokinetic Profile Evaluation (mouse PK); format: in vivo, CD-1 mice; conditions: CD-1, plasma, oral administration at 5 mg/kg, read-out: AUC00~∞
Protocol: Species and strain: CD-1 mice of SPF. Source: Sino-British SIPPR/BK Lab Animal Ltd, Shanghai. 3 mice were intravenously administrated with given compounds (Formulation: 5% DMSO+10% Solutol+85% Saline) or orally gavage administrated with given compounds (Formulation: 5% DMSO+10% Solutol+85% Saline). The blood samples were taken via cephalic vein at timepoints 0.083 h, 0.25 h, 0.5 h, 1 h, 2 h, 4 h, 8 h and 24 h after intravenous administration or at timepoints 0.25 h, 0.5 h, 1 h, 2 h, 4 h, 6 h, 8 h and 24 h after oral gavage administration, 30 μL/time point. Blood samples were placed in tubes containing K2-EDTA and stored on ice until centrifuged. The blood samples were centrifuged at 6800 g for 6 minutes at 2-8° C. within 1 h after collected and stored frozen at approximately −80° C. An aliquot of 10 μL plasma samples were protein precipitated with 200 μL MeOH in which contains 10 ng/mL Verapamil (IS). The mixture was vortexed for 1 min and centrifuged at 18000 g for 7 min. Transfer 180 μL supernatant to 96 well plates. An aliquot of 6 μL supernatant was injected for LC-MS/MS analysis by LC-MS/MS-04 (API4000) instrument. The analytical results were confirmed using quality control samples for intra-assay variation. The accuracy of >66.7% of the quality control samples should be between 80-120% of the known value(s). Standard set of parameters including Area Under the Curve (AUC(0-t) and AUC(0-∞)), elimination half-live (T1/2), maximum plasma concentration (Cmax), will be calculated using noncompartmental analysis modules in FDA certified pharmacokinetic program Phoenix WinNonlin 7.0 (Pharsight, USA).

[2] = tested on: Human Pan T cells; assay: IL-2 Release Detection Assay; format: cell-based; conditions: T-cell, IL-2 in supernatant by ELISA, anti-CD3 pre-coated plate, 24 hours
Protocol: Add dilutions of compounds into the cells and incubate at 37° C. &5% CO2 for 24 hours. IL-2 in cell supernatant was detected by ELISA Kit (R&D, DY202). […] Top and Bottom: Plateaus in same units as Y. Log EC50: same log units as X. Activation fold: Top activation/DMSO control. Activation % at 100 nM: Activation of non-linear regression equation curve at the concentration of 100 nM/DMSO control*100%.

Row | SMILES | AUC [1] | EC50 [2]
1 | Cc1ccc2oc(C3CCN(c4cc(=O)n(C)c5ccc(C#N)nc45)CC3)nc2c1 [Example 1, 5-methyl-8-(4-(5-methylbenzo[d]oxazol-2-yl)piperidin-1-yl)-6-oxo-5,6-dihydro-1,5-naphthyridine-2-carbonitrile] | 6150 ng·h/mL | 452 nM
2 | Cc1ccc2oc(C3CCN(c4cc(=O)n(C)c5ccc(Cl)cc45)CC3)nc2c1 [Example 2, 6-chloro-1-methyl-4-(4-(5-methylbenzo[d]oxazol-2-yl)piperidin-1-yl)quinolin-2(1H)-one] | – | 326 nM
3 | Cc1ccc2oc(C3CCN(c4cc(=O)n(C)c5ccc(C#N)cc45)CC3)nc2c1 [Example 3, 1-methyl-4-(4-(5-methylbenzo[d]oxazol-2-yl)piperidin-1-yl)-2-oxo-1,2-dihydroquinoline-6-carbonitrile] | – | 174 nM
4 | Cc1ccc2oc(C3CCN(c4nc(=O)n(C)c5ccc(Cl)cc45)CC3)nc2c1 [Example 4, 6-chloro-1-methyl-4-(4-(5-methylbenzo[d]oxazol-2-yl)piperidin-1-yl)quinazolin-2(1H)-one] | – | 200 nM
5 | Cc1ccc2oc(C3CCN(c4c(C#N)c(=O)n(C)c5ccc(Cl)nc45)CC3)nc2c1 [Example 9, 6-chloro-1-methyl-4-(4-(5-methylbenzo[d]oxazol-2-yl)piperidin-1-yl)-2-oxo-1,2-dihydro-1,5-naphthyridine-3-carbonitrile] | – | 476 nM
6 | Cc1ccc2oc(C3CCN(c4cc(=O)n(C)c5ccc(Cl)nc45)CC3)nc2c1 [Example 10, 6-chloro-1-methyl-4-(4-(5-methylbenzo[d]oxazol-2-yl)piperidin-1-yl)-1,5-naphthyridin-2(1H)-one] | – | 1250 nM
7 | Cn1c(=O)cc(N2CCC(c3nc4cc(F)ccc4o3)CC2)c2nc(Cl)ccc21 [Example 11, 6-chloro-4-(4-(5-fluorobenzo[d]oxazol-2-yl)piperidin-1-yl)-1-methyl-1,5-naphthyridin-2(1H)-one] | – | 832 nM
8 | Cn1c(=O)cc(N2CCC(c3nc4cc(F)ccc4o3)CC2)c2nc(C#N)ccc21 [Example 12, 8-(4-(5-fluorobenzo[d]oxazol-2-yl)piperidin-1-yl)-5-methyl-6-oxo-5,6-dihydro-1,5-naphthyridine-2-carbonitrile] | 5940 ng·h/mL | 262 nM
9 | COCCOc1cc2c(nc1Cl)c(N1CCC(c3nc4cc(C)ccc4o3)CC1)cc(=O)n2C [Example 15, 6-chloro-7-(2-methoxyethoxy)-1-methyl-4-(4-(5-methylbenzo[d]oxazol-2-yl)piperidin-1-yl)-1,5-naphthyridin-2(1H)-one] | – | 963 nM
10 | COCCOc1cc2c(nc1C#N)c(N1CCC(c3nc4cc(C)ccc4o3)CC1)cc(=O)n2C [Example 16, 3-(2-methoxyethoxy)-5-methyl-8-(4-(5-methylbenzo[d]oxazol-2-yl)piperidin-1-yl)-6-oxo-5,6-dihydro-1,5-naphthyridine-2-carbonitrile] | – | 346 nM
11 | Cc1ccc2oc(C3CCN(c4cc(=O)n(C)c5cc(NCCO)c(Cl)nc45)CC3)nc2c1 [Example 17, 6-chloro-7-((2-hydroxyethyl)amino)-1-methyl-4-(4-(5-methylbenzo[d]oxazol-2-yl)piperidin-1-yl)-1,5-naphthyridin-2(1H)-one] | – | 1200 nM
12 | Cc1ccc2oc(C3CCN(c4cc(=O)n(C)c5cc(NCCO)c(C#N)nc45)CC3)nc2c1 [Example 18, 3-((2-hydroxyethyl)amino)-5-methyl-8-(4-(5-methylbenzo[d]oxazol-2-yl)piperidin-1-yl)-6-oxo-5,6-dihydro-1,5-naphthyridine-2-carbonitrile] | – | 123 nM
13 | Cc1ccc2oc(C3CCN(c4cc(=O)n(C)c5cc(OC6CCOC6)c(C#N)nc45)CC3)nc2c1 (stereo not drawn) [Example 21, 5-methyl-8-(4-(5-methylbenzo[d]oxazol-2-yl)piperidin-1-yl)-6-oxo-3-((tetrahydrofuran-3-yl)oxy)-5,6-dihydro-1,5-naphthyridine-2-carbonitrile] | – | 132 nM
14 | Cc1ccc2oc(C3CCN(c4cc(=O)n(C)c5cc(OCCO)c(C#N)nc45)CC3)nc2c1 [Example 23, 3-(2-hydroxyethoxy)-5-methyl-8-(4-(5-methylbenzo[d]oxazol-2-yl)piperidin-1-yl)-6-oxo-5,6-dihydro-1,5-naphthyridine-2-carbonitrile] | 12100 ng·h/mL | 294 nM
15 | Cc1ccc2oc(C3CCN(c4cc(=O)n(C)c5cc(OCCCO)c(C#N)nc45)CC3)nc2c1 [Example 24, 3-(3-hydroxypropoxy)-5-methyl-8-(4-(5-methylbenzo[d]oxazol-2-yl)piperidin-1-yl)-6-oxo-5,6-dihydro-1,5-naphthyridine-2-carbonitrile] | – | 512 nM
16 | Cc1ccc2oc(C3CCN(c4cc(=O)n(C)c5cc(O[C@@H]6CCOC6)c(C#N)nc45)CC3)nc2c1 [Example 28, (R)-5-methyl-8-(4-(5-methylbenzo[d]oxazol-2-yl)piperidin-1-yl)-6-oxo-3-((tetrahydrofuran-3-yl)oxy)-5,6-dihydro-1,5-naphthyridine-2-carbonitrile] | 3460 ng·h/mL | –
17 | Cc1ccc2oc(C3CCN(c4cc(=O)n(C)c5cc(O[C@H]6CCOC6)c(C#N)nc45)CC3)nc2c1 [Example 29, (S)-5-methyl-8-(4-(5-methylbenzo[d]oxazol-2-yl)piperidin-1-yl)-6-oxo-3-((tetrahydrofuran-3-yl)oxy)-5,6-dihydro-1,5-naphthyridine-2-carbonitrile] | – | 446 nM
18 | Cc1ccc2oc(N3CC=C(c4cc(=O)n(C)c5cc(OCCO)c(C#N)nc45)CC3)nc2c1 [Example 30, 3-(2-hydroxyethoxy)-5-methyl-8-(1-(5-methylbenzo[d]oxazol-2-yl)-1,2,3,6-tetrahydropyridin-4-yl)-6-oxo-5,6-dihydro-1,5-naphthyridine-2-carbonitrile] | – | 682 nM
